# Reference: ChEMBL document CHEMBL1255467, “Comparative in vitro antimicrobial activities of torezolid (TR-700), the active moiety of a new oxazolidinone, torezolid phosphate (TR-701), determination of tentative disk diffusion interpretive criteria, and quality control ranges” (2010)
# How the values were obtained:
# Staphylococcus aureus [1] = experiment: Antimicrobial activity against methicillin-resistant Staphylococcus aureus by broth dilution method; assay type: functional; details: Staphylococcus aureus
# Haemophilus influenzae [2] = experiment: Antimicrobial activity against beta-lactamase negative Haemophilus influenzae by broth dilution method; assay type: functional
# Streptococcus viridans = experiment: Antimicrobial activity against Streptococcus viridans by broth dilution method; assay type: functional
# Moraxella catarrhalis = experiment: Antimicrobial activity against Moraxella catarrhalis by broth dilution method; assay type: functional
# Listeria monocytogenes = experiment: Antimicrobial activity against Listeria monocytogenes by broth dilution method; assay type: functional
# Staphylococcus aureus [3] = experiment: Antimicrobial activity against Staphylococcus aureus by broth dilution method; assay type: functional
# Staphylococcus aureus [4] = experiment: Antimicrobial activity against linezolid-resistant Staphylococcus aureus by broth dilution method; assay type: functional
# Haemophilus influenzae [5] = experiment: Antimicrobial activity against Haemophilus influenzae by broth dilution method; assay type: functional
# Corynebacterium jeikeium = experiment: Antimicrobial activity against Corynebacterium jeikeium by broth dilution method; assay type: functional
# Enterococcus faecium [6] = experiment: Antimicrobial activity against vancomycin-resistant Enterococcus faecium by broth dilution method; assay type: functional
# Staphylococcus sp. [7] = experiment: Antimicrobial activity against methicillin-resistant coagulase-negative Staphylococcus by broth dilution method; assay type: functional
# Streptococcus pneumoniae [8] = experiment: Antimicrobial activity against Streptococcus pneumoniae by broth dilution method; assay type: functional
# Staphylococcus aureus [9] = experiment: Antimicrobial activity against methicillin-susceptible Staphylococcus aureus by broth dilution method; assay type: functional
# Haemophilus influenzae [10] = experiment: Antimicrobial activity against ampicillin-nonsusceptible beta-lactamase negative Haemophilus influenzae by broth dilution method; assay type: functional
# Enterococcus faecalis [11] = experiment: Antimicrobial activity against vancomycin-susceptible Enterococcus faecalis by broth dilution method; assay type: functional
# Staphylococcus sp. [12] = experiment: Antimicrobial activity against methicillin-susceptible coagulase-negative Staphylococcus by broth dilution method; assay type: functional
# Enterococcus faecalis [13] = experiment: Antimicrobial activity against vancomycin-resistant Enterococcus faecalis by broth dilution method; assay type: functional
# Enterococcus sp. = experiment: Antimicrobial activity against Enterococcus by broth dilution method; assay type: functional
# Streptococcus pneumoniae [14] = experiment: Antimicrobial activity against penicillin-intermediate Streptococcus pneumoniae by broth dilution method; assay type: functional
# Staphylococcus sp. [15] = experiment: Antimicrobial activity against Staphylococcus sp. by broth dilution method; assay type: functional
# Staphylococcus aureus [16] = experiment: Antimicrobial activity against vancomycin-nonsusceptible Staphylococcus aureus by broth dilution method; assay type: functional
# Haemophilus influenzae [17] = experiment: Antimicrobial activity against beta-lactamase positive Haemophilus influenzae by broth dilution method; assay type: functional
# Enterococcus faecium [18] = experiment: Antimicrobial activity against vancomycin-susceptible Enterococcus faecium by broth dilution method; assay type: functional
# Streptococcus pneumoniae [19] = experiment: Antimicrobial activity against penicillin-resistant Streptococcus pneumoniae by broth dilution method; assay type: functional
# Streptococcus pneumoniae [20] = experiment: Antimicrobial activity against penicillin-susceptible Streptococcus pneumoniae by broth dilution method; assay type: functional
# Streptococcus sp = experiment: Antimicrobial activity against streptococcal sp. by broth dilution method
compound,measurement,setting,value
CC(=O)NC[C@H]1CN(c2ccc(N3CCOCC3)c(F)c2)C(=O)O1 [LINEZOLID],MIC50,Staphylococcus aureus [1],2 µg/mL
same,MIC90,Staphylococcus aureus [1],4 µg/mL
same,MBC50,Haemophilus influenzae [2],>8 µg/mL
same,MBC90,Haemophilus influenzae [2],>8 µg/mL
same,MBC,Haemophilus influenzae [2]; Haemophilus influenzae,> 8 µg/mL
same,MIC50,Haemophilus influenzae [2]; Haemophilus influenzae,> 8 µg/mL
same,MIC90,Haemophilus influenzae [2]; Haemophilus influenzae,> 8 µg/mL
same,MIC50,Streptococcus viridans,2 µg/mL
same,MIC90,Streptococcus viridans,2 µg/mL
same,MIC,Moraxella catarrhalis,8 µg/mL
same,MIC50,Moraxella catarrhalis,8 µg/mL
same,MIC90,Moraxella catarrhalis,8 µg/mL
same,MIC,Listeria monocytogenes,2 µg/mL
same,MIC50,Listeria monocytogenes,2 µg/mL
same,MIC90,Listeria monocytogenes,2 µg/mL
same,MBC50,Staphylococcus aureus [3],8 µg/mL
same,MBC90,Staphylococcus aureus [3],>8 µg/mL
same,MBC,Staphylococcus aureus [3]; Staphylococcus aureus,> 2 µg/mL
same,MIC50,Staphylococcus aureus [3]; Staphylococcus aureus,2 µg/mL
same,MIC90,Staphylococcus aureus [3]; Staphylococcus aureus,2 µg/mL
same,MBC,Staphylococcus aureus [4],> 8 µg/mL
same,MIC50,Staphylococcus aureus [4],> 8 µg/mL
same,MIC90,Staphylococcus aureus [4],> 8 µg/mL
same,MBC50,Haemophilus influenzae [5],>8 µg/mL
same,MBC90,Haemophilus influenzae [5],>8 µg/mL
same,MBC,Haemophilus influenzae [5]; Haemophilus influenzae,> 8 µg/mL
same,MIC50,Haemophilus influenzae [5]; Haemophilus influenzae,> 8 µg/mL
same,MIC90,Haemophilus influenzae [5]; Haemophilus influenzae,> 8 µg/mL
same,MIC50,Corynebacterium jeikeium,1 µg/mL
same,MIC90,Corynebacterium jeikeium,1 µg/mL
same,MBC,Enterococcus faecium [6],> 4 µg/mL
same,MIC50,Enterococcus faecium [6],2 µg/mL
same,MIC90,Enterococcus faecium [6],4 µg/mL
same,MBC,Staphylococcus sp. [7],> 8 µg/mL
same,MIC50,Staphylococcus sp. [7],1 µg/mL
same,MIC90,Staphylococcus sp. [7],4 µg/mL
same,MBC50,Streptococcus pneumoniae [8],4 µg/mL
same,MBC90,Streptococcus pneumoniae [8],8 µg/mL
same,MBC,Streptococcus pneumoniae [8]; Streptococcus pneumoniae,> 2 µg/mL
same,MIC50,Streptococcus pneumoniae [8]; Streptococcus pneumoniae,1 µg/mL
same,MIC90,Streptococcus pneumoniae [8]; Streptococcus pneumoniae,2 µg/mL
same,MBC50,Staphylococcus aureus [9],>8 µg/mL
same,MBC90,Staphylococcus aureus [9],>8 µg/mL
same,MBC,Staphylococcus aureus [9]; Staphylococcus aureus,> 4 µg/mL
same,MIC50,Staphylococcus aureus [9]; Staphylococcus aureus,2 µg/mL
same,MIC90,Staphylococcus aureus [9]; Staphylococcus aureus,2 µg/mL
same,MBC50,Haemophilus influenzae [10],>8 µg/mL
same,MBC90,Haemophilus influenzae [10],>8 µg/mL
same,MBC,Haemophilus influenzae [10]; Haemophilus influenzae,> 8 µg/mL
same,MIC,Haemophilus influenzae [10]; Haemophilus influenzae,> 8 µg/mL
same,MIC50,Haemophilus influenzae [10]; Haemophilus influenzae,> 8 µg/mL
same,MIC90,Haemophilus influenzae [10]; Haemophilus influenzae,> 8 µg/mL
same,MBC50,Enterococcus faecalis [11],>8 µg/mL
same,MBC90,Enterococcus faecalis [11],>8 µg/mL
same,MBC,Enterococcus faecalis [11]; Enterococcus faecalis,> 8 µg/mL
same,MIC50,Enterococcus faecalis [11]; Enterococcus faecalis,2 µg/mL
same,MIC90,Enterococcus faecalis [11]; Enterococcus faecalis,2 µg/mL
same,MBC50,Staphylococcus sp. [12],>8 µg/mL
same,MBC90,Staphylococcus sp. [12],>8 µg/mL
same,MBC,Staphylococcus sp. [12]; Staphylococcus sp.,> 2 µg/mL
same,MIC50,Staphylococcus sp. [12]; Staphylococcus sp.,1 µg/mL
same,MIC90,Staphylococcus sp. [12]; Staphylococcus sp.,2 µg/mL
same,MIC50,Enterococcus faecalis [13],2 µg/mL
same,MIC90,Enterococcus faecalis [13],2 µg/mL
same,MBC50,Enterococcus sp.,>8 µg/mL
same,MBC90,Enterococcus sp.,>8 µg/mL
same,MBC,Enterococcus sp.; Enterococcus sp.,> 4 µg/mL
same,MIC50,Enterococcus sp.; Enterococcus sp.,2 µg/mL
same,MIC90,Enterococcus sp.; Enterococcus sp.,2 µg/mL
same,MBC50,Streptococcus pneumoniae [14],4 µg/mL
same,MBC90,Streptococcus pneumoniae [14],8 µg/mL
same,MBC,Streptococcus pneumoniae [14]; Streptococcus pneumoniae,> 2 µg/mL
same,MIC50,Streptococcus pneumoniae [14]; Streptococcus pneumoniae,1 µg/mL
same,MIC90,Streptococcus pneumoniae [14]; Streptococcus pneumoniae,2 µg/mL
same,MBC50,Staphylococcus sp. [15],8 µg/mL
same,MBC90,Staphylococcus sp. [15],>8 µg/mL
same,MBC,Staphylococcus sp. [15]; Staphylococcus sp.,> 2 µg/mL
same,MIC50,Staphylococcus sp. [15]; Staphylococcus sp.,2 µg/mL
same,MIC90,Staphylococcus sp. [15]; Staphylococcus sp.,2 µg/mL
same,MBC50,Staphylococcus aureus [16],2 µg/mL
same,MBC90,Staphylococcus aureus [16],4 µg/mL
same,MBC,Staphylococcus aureus [16]; Staphylococcus aureus,2 µg/mL
same,MIC50,Staphylococcus aureus [16]; Staphylococcus aureus,2 µg/mL
same,MIC90,Staphylococcus aureus [16]; Staphylococcus aureus,4 µg/mL
same,MBC50,Haemophilus influenzae [17],>8 µg/mL
same,MBC90,Haemophilus influenzae [17],>8 µg/mL
same,MBC,Haemophilus influenzae [17]; Haemophilus influenzae,> 8 µg/mL
same,MIC,Haemophilus influenzae [17]; Haemophilus influenzae,> 8 µg/mL
same,MIC50,Haemophilus influenzae [17]; Haemophilus influenzae,> 8 µg/mL
same,MIC90,"Haemophilus influenzae [17]; Haemophilus influenzae, read-out: MIC90",> 8 µg/mL
same,MBC50,Enterococcus faecium [18],>8 µg/mL
same,MBC90,Enterococcus faecium [18],>8 µg/mL
same,MBC,Enterococcus faecium [18]; Enterococcus faecium,> 8 µg/mL
same,MIC,Enterococcus faecium [18]; Enterococcus faecium,2 µg/mL
same,MIC50,Enterococcus faecium [18]; Enterococcus faecium,2 µg/mL
same,MIC90,Enterococcus faecium [18]; Enterococcus faecium,2 µg/mL
same,MBC,Streptococcus pneumoniae [19],4 µg/mL
same,MIC50,Streptococcus pneumoniae [19],1 µg/mL
same,MIC90,Streptococcus pneumoniae [19],2 µg/mL
same,MBC50,Streptococcus pneumoniae [20],4 µg/mL
same,MBC90,Streptococcus pneumoniae [20],8 µg/mL
same,MBC,Streptococcus pneumoniae [20]; Streptococcus pneumoniae,> 2 µg/mL
same,MIC50,Streptococcus pneumoniae [20]; Streptococcus pneumoniae,1 µg/mL
same,MIC90,Streptococcus pneumoniae [20]; Streptococcus pneumoniae,2 µg/mL
same,MBC50,Streptococcus sp,8 µg/mL
same,MBC90,Streptococcus sp,>8 µg/mL
same,MBC,Streptococcus sp; Streptococcus sp.,> 2 µg/mL
same,MIC50,Streptococcus sp; Streptococcus sp.,1 µg/mL
same,MIC90,Streptococcus sp; Streptococcus sp.,2 µg/mL
